Results taken from patent publication US20250214977A1, “STAT6 INHIBITORS AND USES THEREOF” (Kymera Therapeutics, Inc., priority 2024, published 2025).

Each compound was assayed on Phosphorylation of STAT6 in human A549 cells (assay: Phosphorylated STAT6 (pSTAT6) flow cytometry assay in human A549 cells). Conditions: read-out: STAT6 IL4 pSTAT6 assay in A549 cells: Average IC50.
Assay type: cell-based
Source text: Example 3. Phosphorylated STAT6 (pSTAT6) Flow Cytometry Assay in Human A549 Cells
Phosphorylation of STAT6 in human A549 cells was quantitatively measured using flow cytometry technology.

| IC50 [nM] | Structure (SMILES) |
| --- | --- |
| < 100 | COc1cncc(C)c1-c1cc(C2=CCCN(C(=O)CCn3ccnn3)C2)cc2cc(C(=O)N(C)C)oc12 [Example I-1090] |
| < 100 | COc1ccccc1-c1cc(C2=CCCN(C(=O)CCn3ccnn3)C2)c(F)c2[nH]c(C(=O)N3CCN(c4[nH]ncc4OC)CC3)cc12 [Example I-508] |
| < 100 | COc1cccnc1N1CCN(C(=O)c2cc3c(N4CCCOCC4)cc(C4=CCCN(C(=O)CCn5ccnn5)C4)c(F)c3[nH]2)CC1 [Example I-592] |
| > 100000 | COc1cccnc1N1CCN(C(=O)c2cc3c(-c4cnccc4C(C)C)cc(C4=CCCN(C(=O)CCn5ccnn5)C4)c(F)c3[nH]2)CC1 [Example I-607] |
| < 100 | COc1cc(F)cnc1N1CCN(C(=O)c2cc3c(-c4cccnc4C4CC4)cc(C4=CCCN(C(=O)CCn5ccnn5)C4)c(F)c3[nH]2)CC1 [Example I-628] |
| 100 to 1000 | Cc1cnnn1CCC(=O)N1CCC=C(c2ccc3cc(C(=O)N(C)C)[nH]c3c2)C1 [Example I-827] |
| 10000 to 100000 | COc1ccccc1-c1cc(C2=CCCN(C(=O)CCn3cccn3)C2)c(F)c2[nH]c(C(=O)N3Cc4cnn(C)c4C3)cc12 [Example I-503] |
| < 100 | COc1ccccc1-c1cc(C2=CCCN(C(=O)CCn3ccnn3)C2)c(F)c2[nH]c(C(=O)N3CCN(c4cc(F)c5ncccc5c4)CC3)cc12 [Example I-953] |
| < 100 | COC(=O)C1CN(C(=O)c2cc3c(-c4ccccc4OC)cc(C4=CCCN(C(=O)CCn5ccnn5)C4)c(F)c3[nH]2)CC1C (centres unmarked) [Example I-998] |
| < 100 | COc1ccccc1-c1cc(C2=CCCN(C(=O)CCn3ccnn3)C2)c(F)c2[nH]c(C(=O)N3CCN(c4ncc(F)c(F)c4OC)CC3)cc12 [Example I-510] |
| < 100 | CN(C)C(=O)c1cc2c(F)c(C3=CCCN(C(=O)C4Cc5ccccc5CN4C=O)C3)ccc2o1 (centres unmarked) [Example I-374, 4-fluoro-5-(1-(2-formyl-1,2,3,4-tetrahydroisoquinoline-3-carbonyl)-1,2,5,6-tetrahydropyridin-3-yl)-N,N-dimethylbenzofuran-2-carboxamide] |
| 100 to 1000 | CCc1cc(CC)c(-c2cc(C3=CCCN(C(=O)CCn4cccn4)C3)c(F)c3[nH]c(C(=O)N4CCN(c5nc(C)c(F)cc5OC)CC4)cc23)cn1 [Example I-741] |
| 100 to 1000 | COc1ccccc1-c1cc(C2=CCCN(C(=O)CCn3ccnn3)C2)c(F)c2[nH]c(C(=O)Nc3ccnn3C)cc12 [Example I-993] |
| < 100 | CN(C)C(=O)c1cc2cc(C3=CCCN(C(=O)CCn4ccnn4)C3)cc(-c3ccc4cncnc4c3)c2o1 [Example I-1089] |
| < 100 | CCc1nc(C)ccc1-c1cc(C(=O)N2CCN(c3ncc(F)cc3OC)CC2)cc2cc(C3=CCCN(C(=O)CCn4cccn4)C3)n(CC3CC3)c12 [Example I-522] |
| < 100 | CCc1cnc(N2CCN(C(=O)c3cc4c(-c5cnccc5OC)cc(C5=CCCN(C(=O)CCn6ccnn6)C5)c(F)c4[nH]3)CC2)c(OC)c1 [Example I-453] |
| < 100 | CCc1ccncc1-c1cc(C2=CCCN(C(=O)CCn3ccnn3)C2)c(F)c2[nH]c(C(=O)N3CCN(c4ncccc4OC)CC3)cc12 [Example I-561] |
| < 100 | CCc1ccncc1-c1cc(C2=CCCN(C(=O)CCn3ccnn3)C2)c(F)c2[nH]c(C(=O)N3CCN(c4ncc(C(F)(F)F)cc4OC)CC3)cc12 [Example I-1040] |
| < 100 | COc1ccccc1-c1cc(C2=CCCN(C(=O)CCn3ccnn3)C2)c(F)c2[nH]c(C(=O)N3CCN(c4cccnc4)CC3)cc12 [Example I-774] |

| IC50 [nM] | Structure (SMILES) |
| --- | --- |
| < 100 | C=C(C)c1cc(C2=CCCN(C(=O)CCn3ccnn3)C2)c(F)c2[nH]c(C(=O)N3CCN(c4ncc(F)cc4OC)CC3)cc12 [Example I-675] |
| < 100 | COc1ccccc1-c1cc(C2=CCCN(C(=O)CCn3ccnn3)C2)c(F)c2[nH]c(C(=O)N3CCN(c4c(F)cc(F)cc4OC)CC3)cc12 [Example I-432] |
| < 100 | CCOCc1cc(-c2cc(C3=CCCN(C(=O)CCn4ccnn4)C3)c(F)c3[nH]c(C(=O)N4CCN(c5ncc(F)cc5OC)CC4)cc23)ccc1F [Example I-1128] |
| < 100 | Cc1c[nH]c2ncc(-c3cc(C4=CCCN(C(=O)CCn5ccnn5)C4)c(F)c4cc(C(=O)N(C)C)oc34)cc12 [Example I-1100] |
| 100 to 1000 | CC(=O)N1CCC=C(c2cc(-c3ccc(C)cc3O)c3cc(C(=O)N(C)C)[nH]c3c2F)C1 [Example I-886] |
| < 100 | CNc1ccc(-c2cc(C3=CCCN(C(=O)CCn4ccnn4)C3)c(F)c3[nH]c(C(=O)N4CCN(C)CC4)cc23)c(OC)c1 [Example I-990] |
| < 100 | COc1ccccc1-c1cc(C2=CCCN(C(=O)CCn3ccnn3)C2)c(F)c2[nH]c(C(=O)N3CCN(c4nnn(C)c4C)CC3)cc12 [Example I-778] |
| < 100 | CCc1cc(C)ncc1-c1cc(C2=CCCN(C(=O)CCn3ccnn3)C2)c(F)c2[nH]c(C(=O)N3CCN(c4nc(C)c(F)cc4OC)CC3)cc12 [Example I-737] |
| 100 to 1000 | COc1ccccc1-c1cc(C2=CCCN(C(C)=O)C2)c(F)c2cc(C(=O)N(C)C)oc12 [Example I-1104] |
| 100 to 1000 | COc1cc(F)cnc1N1CCN(C(=O)c2cc3c(-c4ccc(F)c(C)c4)cc(C4=CCCN(C(=O)CCn5ccnn5)C4)c(F)c3[nH]2)CC1 [Example I-676] |
| 100 to 1000 | COc1ccccc1-c1cc(C2=CCCN(C(=O)CCn3ccnn3)C2)c(F)c2[nH]c(C(=O)N3CCN(c4c(C)cccc4OC)CC3)cc12 [Example I-913] |
| < 100 | COc1ccccc1-c1cc(C2=CCCN(C(=O)CCn3ccnn3)C2)c(F)c2[nH]c(C(=O)N3CCN(Cc4c(C)nn(C)c4C)CC3)cc12 [Example I-1182] |
| > 100000 | COc1cnccc1-c1cc(C2=CCCN(C(C)=O)C2)c(F)c2[nH]c(C(=O)N3CCN(c4ncccc4OC)CC3)cc12 [Example I-408] |
| < 100 | COc1ccccc1-c1cc(C2=CCCN(C(=O)CCn3ccnn3)C2)c(F)c2[nH]c(C(=O)N3CCN(c4ccnn4C)CC3)cc12 [Example I-1025] |
| < 100 | COC(=O)N1CCN(C(=O)c2cc3c(-c4ccccc4OC)cc(C4=CCCN(C(=O)CCn5ccnn5)C4)c(F)c3[nH]2)CC1 [Example I-988] |
| < 100 | CCc1ccncc1-c1cc(C2=CCCN(C(=O)CCn3ccnn3)C2)c(F)c2[nH]c(C(=O)N3CCN(c4cccc(OC)n4)CC3)cc12 [Example I-480] |
| < 100 | COc1ccccc1-c1cc(C2=CCCN(C(=O)CCn3ccnn3)C2)c(F)c2[nH]c(C(=O)N3CC=C(c4ncccc4OC)CC3)cc12 [Example I-425] |
| < 100 | COc1cc(F)cnc1N1CCN(C(=O)c2cc3c(-c4ccc(C(=O)N5CCCC5)cc4F)cc(C4=CCCN(C(=O)CCn5ccnn5)C4)c(F)c3[nH]2)CC1 [Example I-1143] |
| < 100 | CCc1cc(C)ncc1-c1cc(C(=O)N2CCN(c3ncc(F)cc3OC)CC2)cc2cc(C3=CCCN(C(=O)CCn4ccnn4)C3)n(CC3CC3)c12 [Example I-533] |

| IC50 [nM] | Structure (SMILES) |
| --- | --- |
| < 100 | COc1cc(F)c(C)nc1N1CCN(C(=O)c2cc3c(-c4cnc(C)cc4C(C)C)cc(C4=CCCN(C(=O)CCn5ccnn5)C4)c(F)c3[nH]2)CC1 [Example I-740] |
| < 100 | COc1ccccc1-c1cc(C2=CCCN(C(=O)CCn3ccnn3)C2)c(F)c2[nH]c(C(=O)N3CCN(c4ccccc4Cl)CC3)cc12 [Example I-423] |
| < 100 | CN1CCN(c2ccc(-c3cc(C4=CCCN(C(=O)CCn5ccnn5)C4)cc4cc(C(=O)N(C)C)oc34)cn2)CC1 [Example I-1087] |
| < 100 | COc1ncccc1-c1cc(C2=CCCN(C(C)=O)C2)c(F)c2[nH]c(C(=O)N(C)C)cc12 [Example I-879] |
| < 100 | COc1cc(F)cnc1N1CCN(C(=O)c2cc3c(-c4cnn(Cc5ccccc5)c4)cc(C4=CCCN(C(=O)CCn5ccnn5)C4)c(F)c3[nH]2)CC1 [Example I-1115] |
| 100 to 1000 | CC(=O)N1CCC=C(c2cc(-c3ccccc3C(N)=O)c3cc(C(=O)N(C)C)[nH]c3c2F)C1 [Example I-1099] |
| < 100 | CCc1nc(C)ccc1-c1cc(C(=O)N2CCN(c3ncc(F)cc3OC)CC2)cc2cc(C3=CCCN(C(=O)CC(=O)O)C3)n(CC)c12 [Example I-794] |
| 10000 to 100000 | COc1ccccc1-c1cc(C2=CCCN(C(=O)C3Cc4ccccc4CN3C=O)C2)cc2cc(C(=O)N(C)C)oc12 (centres unmarked) [Example I-803, 5-(1-(2-formyl-1,2,3,4-tetrahydroisoquinoline-3-carbonyl)-1,2,5,6-tetrahydropyridin-3-yl)-7-(2-methoxyphenyl)-N,N-dimethylbenzofuran-2-carboxamide] |
| < 100 | COc1ccc(C)cc1-c1cc(C2=CCCN(C(=O)CCn3ccnn3)C2)cc2[nH]c(C(=O)N(C)C)cc12 [Example I-1057] |
| < 100 | Cc1cc(-c2cc(C3=CCCN(C(=O)CCn4ccnn4)C3)cc3cc(C(=O)N(C)C)oc23)n(C)n1 [Example I-1070] |
| < 100 | COc1cc2ncnc(N3CCN(C(=O)c4cc5c(-c6ccccc6OC)cc(C6=CCCN(C(=O)CCn7ccnn7)C6)c(F)c5[nH]4)CC3)c2cc1O [Example I-955] |
| < 100 | Cc1c[nH]c2ncc(-c3cc(C4=CCCN(C(=O)CCn5ccnn5)C4)cc4cc(C(=O)N(C)C)oc34)cc12 [Example I-1085] |
| < 100 | COc1cnccc1-c1cc(C2=CCCN(C(=O)CCn3ccnn3)C2)c(F)c2[nH]c(C(=O)N3CCN(c4ncccc4OC)CC3)cc12 [Example I-366] |
| < 100 | COc1cc(F)cnc1N1CCN(C(=O)c2cc3c(C4=CCN(C5CC5)CC4)cc(C4=CCCN(C(=O)CCn5ccnn5)C4)c(F)c3[nH]2)CC1 [Example I-1131] |
| 100 to 1000 | COc1ccccc1-c1cc(C2=CCCN(C(=O)CCn3ccnn3)C2)c(F)c2[nH]c(C(=O)N3CCN(c4ccc(OC)c(OC)c4OC)CC3)cc12 [Example I-922] |
| < 100 | COc1cccnc1N1CCN(C(=O)c2cc3c(N4CCN(C)CC4)cc(C4=CCCN(C(=O)CCn5ccnn5)C4)c(F)c3[nH]2)CC1 [Example I-557] |
| < 100 | COc1ccccc1-c1cc(C2=CCCN(C(=O)CCn3ccnn3)C2)c(F)c2[nH]c(C(=O)N3CCN(c4cc(C(F)(F)F)ccn4)CC3)cc12 [Example I-935] |
| < 100 | COc1ccccc1-c1cc(C2=CCCN(C(=O)CCn3ccnn3)C2)c(F)c2[nH]c(C(=O)N3CCN(c4cc(OC)c5ccnn5c4)CC3)cc12 [Example I-917] |
